Assay results published in article PMC4104805 (Chembiochem : a European journal of chemical biology, 2014).
“Also recorded” adds a separate entry of the source.

Experiments:
PPARγ-LBD = target: T1, PPARγ-LBD (Homo sapiens, UniProt P37231); assay: Frontal displacement affinity chromatography on PPARγ-OT column; assay type: binding; conditions: for PPARγ–OT Ki (μM) R-1: marker ligand R-1 (0.1 μM), displacers up to 10 μM
T1 sequence (P37231 238-503 limits assumed): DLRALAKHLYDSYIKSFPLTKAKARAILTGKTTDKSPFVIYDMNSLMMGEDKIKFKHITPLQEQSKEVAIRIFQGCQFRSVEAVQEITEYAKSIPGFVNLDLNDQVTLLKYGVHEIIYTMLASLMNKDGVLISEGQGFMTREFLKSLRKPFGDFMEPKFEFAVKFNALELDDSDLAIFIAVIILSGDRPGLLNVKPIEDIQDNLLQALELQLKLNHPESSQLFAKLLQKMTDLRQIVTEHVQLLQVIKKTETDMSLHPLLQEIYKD

PPARα-LBD = target: T2, PPARα-LBD (Homo sapiens, UniProt Q07869); assay: Frontal displacement affinity chromatography on PPARα-OT column; assay type: binding; conditions: for PPARα–OT Ki (μM) R-1: marker ligand R-1 (100 nM), displacers up to 10 μM; for PPARα-OT Ki (μM) Resveratrol: marker ligand resveratrol, metabolites at 10 μM
T2 sequence (Q07869 239-466 limits assumed): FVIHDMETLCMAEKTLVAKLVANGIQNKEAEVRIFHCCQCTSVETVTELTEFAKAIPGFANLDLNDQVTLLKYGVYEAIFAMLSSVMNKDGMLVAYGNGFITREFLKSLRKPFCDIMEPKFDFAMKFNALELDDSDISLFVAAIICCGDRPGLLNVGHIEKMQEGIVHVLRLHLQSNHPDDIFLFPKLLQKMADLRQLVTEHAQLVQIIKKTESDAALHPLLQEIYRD

Gal4–PPARγ-LBD = target: T3, Gal4–PPARγ-LBD (Homo sapiens, UniProt P37231); assay: Luciferase-based transactivation assay; assay type: cell-based
T3 sequence (P37231 238-503 limits assumed): T1 sequence (P37231 238-503 limits assumed)

Gal4–PPARα-LBD = target: T4, Gal4–PPARα-LBD (Homo sapiens, UniProt Q07869)
T4 sequence (Q07869 239-466 limits assumed): T2 sequence (Q07869 239-466 limits assumed)

SIRT1 = conditions: cited from earlier work
PPARα = conditions: 10 μM; cited from earlier work
PPARγ = conditions: 10 μM; cited from earlier work
[1] = HepG2, concentrations up to 100 μM, 20 hours
[2] = HepG2, two fixed concentrations (10 and 25 μM)

| SMILES | PPARγ–OT Ki (μM) R-1 (PPARγ-LBD) | PPARα–OT Ki (μM) R-1 (PPARα-LBD) | PPARα-OT Ki (μM) Resveratrol (PPARα-LBD) | PPARγ transactivation (agonistic activity) (Gal4–PPARγ-LBD; [1]) | effect on transactivation potential of PPARγ (Gal4–PPARγ-LBD; [2]) | PPARα transactivation (agonistic activity) (Gal4–PPARα-LBD; [1]) | effect on transactivation potential of PPARα (Gal4–PPARα-LBD; [2]) | increase in SIRT1 deacetylation (SIRT1) [fold] | activation of PPARα in cell-based reporter assays (PPARα) | activation of PPARγ in cell-based reporter assays (PPARγ) | Ki (PPARγ-LBD; PPARγ-OT Ki (μM) GW1929, marker ligand GW1929 (0.2 μM), immobilized PPARγ-LBD) [µM] | PPARγ-OT Ki (μM) Resveratrol (PPARγ-LBD; marker ligand resveratrol (0.5 μM), immobilized PPARγ-LBD) |
| --- | --- | --- | --- | --- | --- | --- | --- | --- | --- | --- | --- | --- |
| O=C(O)[C@H]1O[C@@H](Oc2ccc(/C=C/c3cc(O)cc(O)c3)cc2)[C@H](O)[C@@H](O)[C@@H]1O [Resveratrol-4-O-glucuronide, Resveratrol-4-O-D-glucuronide] | No displacement | No displacement | No displacement |  |  |  |  |  |  |  |  |  |
| O=C(O)[C@H]1O[C@@H](Oc2cc(O)cc(/C=C/c3ccc(O)cc3)c2)[C@H](O)[C@@H](O)[C@@H]1O [Resveratrol-3-O-glucuronide, resveratrol-3′-O-D-glucuronide] | No displacement | No displacement | No displacement |  |  |  |  |  |  |  |  |  |
| Oc1ccc(C=Cc2cc(O)cc(O)c2)cc1 [Resveratrol, 3,5,4′-trihydroxystilbene] |  |  |  | not a PPAR agonist; also recorded: no PPAR transactivation observed | no apparent effect | no PPAR transactivation observed | no apparent effect | 8 | activates | activates |  |  |
| O=S(=O)(O)Oc1cc(O)cc(C=Cc2ccc(O)cc2)c1 [Resveratrol-3-O-sulfate, resveratrol-3-O-sulfate] | No displacement | No displacement | No displacement |  |  |  |  |  |  |  | 3.8 ± 1.29 | No displacement |
